The source of these data is ChEMBL document CHEMBL1201862, “PubChem BioAssay data set” (2004).

By GI50 is commonly meant the concentration at which growth is held to half of that of the control. Usually AC50 stands for the midpoint of the concentration-response curve, whichever way the signal moves.

The structures appear in SMILES notation. Active and inactive are the calls of the source.

Among the targets are Cytochrome P450 2D6 (Homo sapiens, UniProt P10635); Cytochrome P450 2C9 (Homo sapiens, UniProt P11712); Cytochrome P450 3A4 (Homo sapiens, UniProt P08684).
Assay [1] deals with T1, Corticotropin-releasing factor receptor 2/Corticotropin-releasing factor-binding protein (Homo sapiens, UniProt P24387+Q13324).
T1 sequence (Q13324 whole entry): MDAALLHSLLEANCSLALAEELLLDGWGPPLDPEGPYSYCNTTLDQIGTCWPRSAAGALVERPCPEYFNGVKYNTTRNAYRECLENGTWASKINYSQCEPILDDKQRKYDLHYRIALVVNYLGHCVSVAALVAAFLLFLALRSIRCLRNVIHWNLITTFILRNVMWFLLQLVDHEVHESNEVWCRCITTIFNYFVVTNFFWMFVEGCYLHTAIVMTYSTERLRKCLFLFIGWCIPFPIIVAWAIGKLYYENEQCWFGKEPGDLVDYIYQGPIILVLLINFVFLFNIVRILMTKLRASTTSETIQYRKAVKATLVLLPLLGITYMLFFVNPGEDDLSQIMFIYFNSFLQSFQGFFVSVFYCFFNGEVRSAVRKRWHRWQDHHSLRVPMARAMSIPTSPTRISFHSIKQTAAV
T1 sequence (P24387 whole entry): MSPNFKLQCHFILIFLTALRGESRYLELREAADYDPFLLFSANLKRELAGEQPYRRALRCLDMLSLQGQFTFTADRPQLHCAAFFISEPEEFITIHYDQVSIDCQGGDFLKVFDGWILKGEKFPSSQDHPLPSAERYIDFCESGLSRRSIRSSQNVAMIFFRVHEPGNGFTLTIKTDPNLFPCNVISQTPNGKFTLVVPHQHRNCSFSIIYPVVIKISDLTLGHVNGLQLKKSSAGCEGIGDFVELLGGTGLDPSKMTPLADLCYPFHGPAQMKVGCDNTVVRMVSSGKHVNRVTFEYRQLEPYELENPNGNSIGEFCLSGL
Briefly: activators of CRF receptor 2 with binding protein – uHTS hits, confirmation (AID 602473). The format is functional. To be noted: read-out: EC50_Mean.

The target of assay [2] is T1, Corticotropin-releasing factor receptor 2/Corticotropin-releasing factor-binding protein. Nature of the assay: Dose Response confirmation of uHTS hits for small molecule antagonists of the CRF-binding protein and CRF-R2 receptor complex. The conditions noted are these: read-out: IC50_Mean. The format is functional.
The target in assay [3] is T2, Polyadenylate-binding protein 1 (Homo sapiens, UniProt P11940). Nature of the assay: MLLE domain peptide-binding blockers, IC50 – biochemical, fluorescence polarization, FITC-PAM2 peptide, dose response (AID 602259). In kind it is functional. To be noted: read-out: IC50_Mean. Background: In fluorescence polarisation assays a small probe gives low polarisation when free and higher when bound to something large.

Assay [4] concerns the target T2, Polyadenylate-binding protein 1. Nature of the assay: MLLE binding blockers, Cy5 peptide tracer – biochemical, fluorescence polarization, Cy5-PAM2 peptide, secondary, miRNA deadenylation inhibitor project, dose response (AID 602260). The conditions noted are these: read-out: IC50_Mean. In kind it is functional.
Assay [5] is described as follows: cells. The format is functional.
The next assay concerns SN12K1. Briefly: cells. The format is functional. The conditions noted are these: Homo sapiens.
A further assay has as its system P388. Nature of the assay: cells. The format is functional. To be noted: Mus musculus.
A further assay relates to P388/ADR. Nature of the assay: cells. To be noted: Mus musculus. The format is functional.
The subject of a further assay is INS1. Nature of the assay: INS-1E survival protection against cytokine death – cell-based, luminescence, retest, dose response (AID 449756).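 Also: cell death triggered by IL-1 beta plus TNF-alpha plus IFN-gamma mixture; protective hits raise ATP signal compared with cytokine alone wells.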 The format is functional. To be noted: Rattus norvegicus.
Another assay concerns the target Cytochrome P450 2C19 (Homo sapiens, UniProt P33261). Briefly: Cytochrome panel assay with activity outcomes. Panel member name: p450-cyp2c19 Compounds with AC50 equal or less than 10 uM are considered active. The format is functional. To be noted: read-out: AC50.
A short description of assay [6]: cells. In kind it is functional, cell-based.

Chain of Cytochrome P450 2C19 (P33261 whole entry): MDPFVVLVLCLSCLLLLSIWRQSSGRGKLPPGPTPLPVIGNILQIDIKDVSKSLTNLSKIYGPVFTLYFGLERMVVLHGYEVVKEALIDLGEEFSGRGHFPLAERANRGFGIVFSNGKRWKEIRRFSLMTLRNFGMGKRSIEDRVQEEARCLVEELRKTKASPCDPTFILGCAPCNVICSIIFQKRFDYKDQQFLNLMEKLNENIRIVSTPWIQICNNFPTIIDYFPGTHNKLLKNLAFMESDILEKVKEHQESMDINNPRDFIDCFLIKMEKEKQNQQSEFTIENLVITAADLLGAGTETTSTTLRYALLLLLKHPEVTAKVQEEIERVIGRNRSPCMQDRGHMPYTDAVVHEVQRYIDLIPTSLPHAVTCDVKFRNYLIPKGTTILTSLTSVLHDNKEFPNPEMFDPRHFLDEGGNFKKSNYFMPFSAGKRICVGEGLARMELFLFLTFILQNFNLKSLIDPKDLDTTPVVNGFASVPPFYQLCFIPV
T2 sequence (P11940 whole entry, the tested form may be a part): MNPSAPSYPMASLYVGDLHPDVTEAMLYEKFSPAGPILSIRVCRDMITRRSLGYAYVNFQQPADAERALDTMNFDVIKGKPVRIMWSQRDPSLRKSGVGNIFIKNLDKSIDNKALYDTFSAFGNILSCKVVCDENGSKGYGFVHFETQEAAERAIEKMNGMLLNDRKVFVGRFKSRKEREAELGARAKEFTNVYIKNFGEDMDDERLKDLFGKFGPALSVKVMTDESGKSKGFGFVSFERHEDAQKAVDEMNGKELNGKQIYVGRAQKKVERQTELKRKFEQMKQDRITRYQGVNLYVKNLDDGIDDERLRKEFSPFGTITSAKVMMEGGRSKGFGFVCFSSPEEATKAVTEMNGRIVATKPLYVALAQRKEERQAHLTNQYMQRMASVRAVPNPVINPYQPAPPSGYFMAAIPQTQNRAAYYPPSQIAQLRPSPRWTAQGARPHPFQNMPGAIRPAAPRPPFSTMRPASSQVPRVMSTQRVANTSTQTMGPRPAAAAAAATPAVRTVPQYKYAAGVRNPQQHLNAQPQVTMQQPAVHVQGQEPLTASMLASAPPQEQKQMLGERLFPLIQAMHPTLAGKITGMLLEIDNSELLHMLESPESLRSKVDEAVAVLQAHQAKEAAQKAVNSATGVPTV
Chain of Cytochrome P450 2C9 (P11712 whole entry): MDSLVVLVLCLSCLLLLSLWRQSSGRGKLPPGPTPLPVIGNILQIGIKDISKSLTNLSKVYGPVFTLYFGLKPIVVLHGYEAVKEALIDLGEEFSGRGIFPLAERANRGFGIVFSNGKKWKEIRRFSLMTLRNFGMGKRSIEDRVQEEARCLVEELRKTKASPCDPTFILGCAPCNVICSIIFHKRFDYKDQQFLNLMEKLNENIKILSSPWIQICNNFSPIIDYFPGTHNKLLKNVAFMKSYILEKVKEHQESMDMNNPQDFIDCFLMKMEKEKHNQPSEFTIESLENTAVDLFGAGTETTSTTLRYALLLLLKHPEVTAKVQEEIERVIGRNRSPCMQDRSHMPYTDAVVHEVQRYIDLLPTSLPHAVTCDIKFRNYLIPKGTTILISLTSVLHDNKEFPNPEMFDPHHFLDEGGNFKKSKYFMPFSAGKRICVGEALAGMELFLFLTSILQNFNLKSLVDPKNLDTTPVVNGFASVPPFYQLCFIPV
Chain of Cytochrome P450 2D6 (P10635 whole entry): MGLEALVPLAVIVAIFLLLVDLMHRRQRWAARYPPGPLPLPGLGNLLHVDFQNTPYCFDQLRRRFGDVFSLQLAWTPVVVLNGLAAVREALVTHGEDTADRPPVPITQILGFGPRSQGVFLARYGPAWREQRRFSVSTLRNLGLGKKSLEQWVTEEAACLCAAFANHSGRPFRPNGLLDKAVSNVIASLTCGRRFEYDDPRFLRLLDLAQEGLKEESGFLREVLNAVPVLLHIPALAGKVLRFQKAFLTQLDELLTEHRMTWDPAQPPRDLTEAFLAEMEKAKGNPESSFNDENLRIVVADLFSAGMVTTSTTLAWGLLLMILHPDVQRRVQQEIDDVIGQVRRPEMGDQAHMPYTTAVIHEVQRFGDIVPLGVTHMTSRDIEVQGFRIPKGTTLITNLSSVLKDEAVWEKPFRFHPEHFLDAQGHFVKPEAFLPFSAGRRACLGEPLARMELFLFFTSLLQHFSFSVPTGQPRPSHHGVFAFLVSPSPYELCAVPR
Chain of Cytochrome P450 3A4 (P08684 whole entry): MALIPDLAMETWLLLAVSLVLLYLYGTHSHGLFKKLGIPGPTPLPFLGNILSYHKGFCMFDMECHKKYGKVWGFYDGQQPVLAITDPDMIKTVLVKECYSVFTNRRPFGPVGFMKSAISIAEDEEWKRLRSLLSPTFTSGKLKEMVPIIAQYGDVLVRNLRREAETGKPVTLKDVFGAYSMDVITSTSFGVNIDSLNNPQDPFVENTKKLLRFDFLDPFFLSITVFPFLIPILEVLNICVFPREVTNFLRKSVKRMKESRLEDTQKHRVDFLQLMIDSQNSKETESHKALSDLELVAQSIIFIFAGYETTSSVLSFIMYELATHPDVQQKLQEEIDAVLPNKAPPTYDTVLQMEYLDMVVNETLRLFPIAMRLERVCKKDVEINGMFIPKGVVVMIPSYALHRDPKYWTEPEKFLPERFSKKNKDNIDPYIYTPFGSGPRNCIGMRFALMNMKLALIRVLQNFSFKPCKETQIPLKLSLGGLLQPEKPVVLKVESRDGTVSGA

In the case of `Cc1cc([N+](=O)[O-])c2ccccc2c1NS(=O)(=O)c1ccccc1`, the EC50 in assay [1] is > 53 µM (inactive). The IC50 in assay [2] is > 47.1 µM (inactive).

Consider `CC(=O)Nc1ccc(SC[C@H](Cc2ccccc2)N2CC[C@@H](O)CCC2=O)cc1`, for which the IC50 in assay [3] and in assay [4] was > 66 µM (inactive) throughout.

For `CCc1c(C)c2ccc(OCC(=O)OC)cc2oc1=O`, in “cells [5]”, the IC50 is 16.6 µM (active).

As for `COc1cc(C2(c3ncc[nH]3)SSSCC2O)ccc1O` (stereo not drawn), the GI50 with SN12K1 was 30.5 µM (inactive); in the assay with P388, 18.7 µM (inactive); with P388/ADR it was 17.8 µM (inactive).

Turning to `CCCC1(C)Nc2ccccc2-c2nc3ccccc3n21` (stereo not drawn), the AC50 at Cytochrome P450 2D6 is 22.4 µM (inconclusive).

Regarding `CC(=O)c1cccc(NS(=O)(=O)c2ccc(N/C=C\C(=O)c3ccc(F)cc3)cc2)c1`, the AC50 is 3.74 µM (active) in the assay on INS1 and 8.91 µM (inconclusive) on Cytochrome P450 2D6.

As for `Cc1c2cc[n+](Cc3ccc(I)cc3)cc2c(C)c2c1[nH]c1ccccc12`, the figures for the GI50 with SN12K1, in the assay with P388 and in the assay on P388/ADR were 0.208 µM (active), 0.1 µM (active) and 17.9 µM (inactive), respectively.

As for `CC1(Cc2ccc3c(c2)OCO3)NC(=O)NC1=O` (stereo not drawn), the EC50 in assay [1] was > 53 µM (inactive). In [2], the IC50 is > 47.1 µM (inactive).

For the molecule `COc1ccccc1-c1nc(NCc2cccnc2)c2ccccc2n1`, the AC50 on Cytochrome P450 2C19 was 39.8 µM (inconclusive); at Cytochrome P450 2D6 it was 20 µM (inconclusive).

`CC(NCCS(=O)(=O)O)C(=O)O` (stereo not drawn): the GI50 with SN12K1, in the assay on P388 and in the assay on P388/ADR was > 100 µM (inactive) in each case.

On to `N#Cc1ccc(CN2CCC3(CC2)CCN(C(=O)c2cc(C(F)(F)F)cc(C(F)(F)F)c2)CC3)cc1`, for which the AC50 on Cytochrome P450 2D6 is 39.8 µM (inconclusive).

On to `Oc1c(N=Nc2nn[nH]n2)ccc2ccccc12`, for which the IC50 is 38.9 µM (inactive) in [3] and > 66 µM (inactive) in assay [4].

With `O=C(CCCc1ccccc1)Nc1nncs1`, in assay [1], the EC50 was > 53 µM (inactive). Also, the IC50 in assay [2] is > 47.1 µM (inactive).

For `CC(C)C1NC(=O)CC(c2ccccc2)N(N=O)C1c1ccccc1` (stereo not drawn), the GI50 with SN12K1 was > 89.9 µM (inactive); with P388 it was 70.1 µM (inactive); in the assay with P388/ADR, 44.5 µM (inactive).

In the case of `CSc1ccccc1NC(=O)c1cc(CC(C)C)on1`, the EC50 in [1] was > 53 µM (inactive). Besides, the IC50 in assay [2] is > 47.1 µM (inactive).

Turning to `CCCc1cc(=O)[nH]c(SCC(=O)Nc2nonc2N)n1`, the IC50 in assay [3] and in [4] was > 66 µM (inactive) throughout.

Turning to `O=C(NCCCCCCNC(=O)N1CCCCCC1)N1CCCCCC1`, the EC50 in assay [1] is > 53 µM (inactive). Further, the IC50 in assay [2] was > 47.1 µM (inactive).

On to `COc1ccc(C2C(C)C(=O)C(C)C(c3ccc(OC)cc3)N2N=O)cc1` (stereo not drawn), for which the GI50 in the assay on SN12K1 is 55.2 µM (inactive); in the assay on P388/ADR it was > 100 µM (inactive).

`Cc1ccc(C(=O)N(Cc2sccc2C)C2CCS(=O)(=O)C2)cc1` (stereo not drawn): the EC50 in [1] is > 53 µM (inactive). Also, the IC50 in assay [2] was > 47.1 µM (inactive).

Regarding `COc1cccc2c1C(=O)c1c(O)c3c(c(O)c1C2=O)C[C@@](O)(C(C)O)C[C@@H]3OC1CC(N)C(O)C(C)O1` (stereo partly drawn), the GI50 in the assay on SN12K1 is 0.0891 µM (active); with P388, 0.191 µM (active); in the assay with P388/ADR, 36.6 µM (inactive).

In the case of `CN(C)CCNC(=O)c1cccc2[nH]c(-c3ccc(Cl)cc3)nc12`, the GI50 in the assay on SN12K1 was 3.48 µM (inactive); with P388 it was 2.48 µM (inactive); in the assay on P388/ADR, 3.2 µM (inactive).

With `COc1ccccc1NC(=O)c1cnc(SC)nc1`, in the assay “cells [5]”, the IC50 was 49.4 µM (active).

With `CC(C)N(C(=O)[C@H]1C[C@H](CC(=O)NCc2ccco2)C(=O)N2CCc3c([nH]c4cc(CCC(=O)N(C)C)ccc34)[C@]12C)C(C)C`, the EC50 in assay [1] is > 53 µM (inactive). In addition, the IC50 in assay [2] is > 47.1 µM (inactive).

`CC(C)NC[C@@H](O)COc1ccccc1-n1cccc1`: the AC50 at Cytochrome P450 2D6 was 31.6 µM (inconclusive).

As for `Cc1cc(=O)n2nc(N3CCC(C(=O)Nc4c(F)c(F)c(F)c(F)c4F)CC3)sc2n1`, the EC50 in assay [1] is > 53 µM (inactive). Moreover, in [2], the IC50 was > 47.1 µM (inactive).

Regarding `O=C1C2=C(C3=NCCc4c[nH]c1c43)c1c(Br)cc(Br)cc1CCN2`, the GI50 in the assay on SN12K1 was 3.65 µM (inactive); in the assay on P388, 2.13 µM (inactive); in the assay with P388/ADR it was 2.18 µM (inactive).

For `CCNC(=O)COC(=O)c1ccc(-c2nc3ccccc3s2)s1`, the IC50 in “cells [5]” was 5.44 µM (active).

In the case of `CO/C=C1\OC(=O)C=C1OC`, the GI50 in the assay on SN12K1, in the assay on P388 and in the assay on P388/ADR was > 100 µM (inactive) throughout.

Consider `Cc1c2cc[n+](C)c(C)c2cc2c1[nH]c1ccccc12`, for which the figures for the GI50 with SN12K1, with P388 and in the assay on P388/ADR were 2.21 µM (inactive), 4.5 µM (inactive) and > 100 µM (inactive), respectively.

Take `COc1ccc(Cl)cc1C(=O)NNC(=O)COC(=O)c1cccs1`: the EC50 in assay [1] was > 53 µM (inactive). In assay [2], the IC50 was > 47.1 µM (inactive).

Take `Cc1cc(C)n(CC(=O)NNC(=O)COc2ccc(Br)cc2F)n1`: the IC50 in [3] and in assay [4] was > 66 µM (inactive) throughout.

As for `CN(CC(=O)Nc1ccc(C#N)cc1)Cc1ccc(Cl)c(Cl)c1`, in “cells [5]”, the IC50 is 42.3 µM (active).

Consider `CCC(C)(C)c1ccc(OCC(=O)Nc2ccncc2)cc1`, for which, in “cells [5]”, the IC50 is 8.95 µM (active).

On to `O=C(NCCO)c1ccc(Cl)cc1`, for which the AC50 at Cytochrome P450 2C19 was 2 µM (inconclusive); on Cytochrome P450 2D6, 2 µM (inconclusive); on Cytochrome P450 2C9 it was 5.01 µM (inconclusive).

Take `CO[C@H]1C[C@@H]2CC[C@@H](C)[C@@](O)(O2)C(=O)C(=O)N2CCCC[C@H]2C(=O)O[C@H]([C@H](C)C[C@@H]2CC[C@@H](O)[C@H](OC)C2)CC(=O)[C@H](C)C=C(C)[C@@H](O)[C@@H](OC)C(=O)[C@H](C)C[C@H](C)/C=C/C=C/C=C1C`: the GI50 in the assay on SN12K1 and in the assay with P388 was 0.1 µM (active) throughout.

`O=C(O)CNS(=O)(=O)c1ccc(NC(=O)Nc2ccccc2)cc1`: the GI50 in the assay on SN12K1, with P388 and in the assay on P388/ADR was > 100 µM (inactive) throughout.

For `COc1cccc(CN2CCN(c3cccc(C(F)(F)F)c3)CC2)c1OC`, the EC50 in assay [1] was > 53 µM (inactive). In assay [2], the IC50 was > 47.1 µM (inactive).

For `[H]/N=C(/N)N/C(=N/[H])NCCc1ccccc1` [PHENFORMIN], on Cytochrome P450 2D6, the AC50 is 10 µM (inconclusive).

For `O=C(NC(=S)Nc1ccccc1Br)c1ccco1`, the IC50 in [3] and in [4] was > 66 µM (inactive) throughout.

With `COc1ccc(-c2noc(-c3cc4ccccc4oc3=O)n2)cc1`, the IC50 in “cells [5]” is 5.25 µM (active).

For `NS(=O)(=O)c1ccc(/N=N\c2cnc(O)c(O)c2)cc1`, the AC50 at Cytochrome P450 2C19 was 6.31 µM (inconclusive); on Cytochrome P450 2D6, 5.01 µM (inconclusive); at Cytochrome P450 2C9 it was 6.31 µM (inconclusive).

Take `O=C(COc1ccc(S(=O)(=O)NC2CCCCC2)cc1Cl)NCc1cccnc1`: in [1], the EC50 was > 53 µM (inactive). In addition, the IC50 in assay [2] was > 47.1 µM (inactive).

For the molecule `CCc1nc(N2CCN(C(=O)c3ccco3)CC2)c2c3c(sc2n1)CCCC3`, the EC50 in “cells [6]” is > 350 µM (not active).

With `COc1ccc(-n2c(=O)c(-c3cn(C)c4ccccc34)nc3cnc(N4CCNCC4)nc32)cc1`, the values for the AC50 on Cytochrome P450 2D6, on Cytochrome P450 2C9 and on Cytochrome P450 3A4 were 20 µM (inconclusive), 39.8 µM (inconclusive) and 20 µM (inconclusive), respectively.

As for `Cc1cccc2nc3c(C(=O)NCCN(C)C)cccc3cc12`, the concentration for 50% growth inhibition (GI50) is 0.711 µM (active) with SN12K1, 0.292 µM (active) in the assay with P388 and 0.474 µM (active) with P388/ADR.
